Laboratory results from patent US10662146B2, “Prodrugs of fencamfamine” (Praxis Bioresearch, LLC, priority 2015, dated 2020).
Where two headings read alike, the source gives them in different places.

Legend:
[1] = Single dose oral PK study in male Sprague Dawley rats (plasma by LC-MS/MS); assay type: in vivo; settings: mean; for AUC: read-out: Oral PK Parameters AUC, Prodrug
Description: (§1) We describe here PK results of prodrugs of PRX-002 (−) or (+) isomers. All doses of prodrugs were administered such that they were equivalent to 5 mg/kg of PRX-002 (−) or (+) for oral studies and 2 mg/kg PRX-002 (−) or (+) for intravenous studies in male Sprague-Dawley (MSD) rats. Higher doses of up to 10 or 15 mg/kg [again equivalent to PRX-002 (−)] were used in some studies (as specified)]. Formulation preparation, dose administration and time of sample collection was as follows.
Test item was weighed [5 mg equivalent dose of PRX-002 for prodrugs] and transferred to a graduated tube. Then 10 μL of Tween 80 was added and vortexed mixed until the test item was completely mixed. Small volume of 0.5% (w/v) carboxymethylcellulose in water solution was then added dropwise with continuous vortex mixing until a uniform suspension was obtained. The final volume was then made up to 10 mL with 0.5% (w/v) carboxymethylcellulose in water with final strength of 0.5 mg/mL. […] This formulation was freshly prepared before the administration to animals.
(§2) Adult male Sprague Dawley Rats aged 8-10 weeks were used for the study. Fasted animals were administered test item by oral route with a dose of 5 mg/kg body weight at dose volume of 10 mL/kg body weight. Under mild isoflurane anesthesia, blood specimens were collected by retro-orbital puncture method using capillary tubes into pre-labeled tubes containing anticoagulant (K2EDTA-2 mg/mL blood) during the next 24 hours of post dose as mentioned in below table. For blood sampling at multiple time points, right and left eyes were used alternatively for blood collection. Collected blood specimens were centrifuged at 4000 rpm, 4° C. for 10 minutes and plasma were separated and stored at −80° C. until analysis.
Blood was collected as outlined in Table 39.1 (oral).
(§3) Test item PRX-P4-003 was weighed and transferred to a graduated tube. Then 12.42 μL of Tween 80 was added and vortexed mixed until the test item was completely mixed. Small volume of 0.5% (w/v) Carboxymethylcellulose in water solution was then added dropwise with continuous vortex mixing until a uniform suspension was obtained. The final volume was then made up to 12.42 mL with 0.5% (w/v) Carboxymethylcellulose in water with final strength of 1.0 mgA/mL. […] This formulation was freshly prepared before the administration to animals.
as §2, with “with a PRX-P4-003” for “test item”, “10” for “5”
as §3, with “PRX-P5-006” for “PRX-P4-003”, “10” for “12.42”, “3.97 mg/mL.” for “1.0 mgA/mL.”
Adult male Sprague Dawley Rats aged 8-10 weeks were used for the study. Fasted animals were administered with a PRX-P5-006 by oral route with a dose of 15 mg/kg body weight at dose volume of 10 mL/kg body weight. […]

[2] = Single dose intravenous PK study in male Sprague Dawley rats (plasma by LC-MS/MS); assay type: in vivo; settings: male, Sprague Dawley, rat; IV 2 mg/kg [equivalent to PRX-002 (−)], analyte: prodrug in plasma, mean; read-out: IV PK Parameters Tmax, Prodrug
Description: as §1
as §2, with “study. Animals” for “study. Fasted animals”, “administered the” for “administered”, “by Intravenous bolus” for “by oral”, “of 2” for “of 5”, “of 5.0” for “of 10”
Blood was collected as outlined in Table 39.2 (IV).
Test item PRX-P4-003 was weighed and transferred to a graduated tube. Then 600 μL of PEG 400 (v/v) was added and vortex mixed thoroughly until the test item was completely dissolved. Then 1.800 mL of Hydroxypropyl-β-cyclodextrin (HPβCD, 50% w/v) was added and vortex mixed thoroughly. The final volume was then made up to 3.600 mL with sterile water for injection (SWFI, v/v) with final formulation strength of 5.16 mgA/mL. […] This formulation was freshly prepared before the administration to animals.
as §2, with “study. Animals” for “study. Fasted animals”, “administered with a PRX-P4-003” for “administered test item”, “by Intravenous bolus” for “by oral”, “of 10” for “of 5”, “of 5” for “of 10”
Test item PRX-P5-006 was weighed and transferred to a graduated tube. Then 500 μL of DMSO (v/v) was added vortex mixed thoroughly until the test item was completely dissolved. Then 4000 μL of Hydroxypropyl-β-cyclodextrin (HPβCD, 50% w/v) was added and vortex mixed thoroughly. Then 2500 μL of PEG 400 (v/v) was added and vortex mixed thoroughly. The final volume was then made up to 10000 μL with sterile water for injection (SWFI, v/v) with final formulation strength of 3.97 mg/mL. […] This formulation was freshly prepared before the administration to animals.
as §2, with “Animals” for “Fasted animals”, “with a PRX-P5-006” for “test item”, “Intravenous bolus” for “oral”, “15” for “5”
The plasma concentrations of fencamfamine were measured by LC-MS/MS over time. […] The release of fencamfamine from the prodrugs varied depending on the chain length of the fatty acid linkers attached to fencamfamine. […]

[3] = male, Sprague Dawley, rat, in vivo, oral 5 mg/kg [equivalent to PRX-002 (−)], analyte: prodrug in plasma, read-out: Oral PK Parameters Tmax, Prodrug
[4] = male, Sprague Dawley, rat, in vivo, po, 5 mg/kg, oral 5 mg/kg [equivalent to PRX-002 (−)], analyte: prodrug in plasma, read-out: Oral PK Parameters Cmax, Prodrug
[5] = male, Sprague Dawley, rat, in vivo, oral 5 mg/kg [equivalent to PRX-002 (−)], analyte: prodrug in plasma

For `CCCCCCCCCC(=O)OCOC(=O)N(CC)C1C2CCC(C2)C1c1ccccc1` (single isomer, unassigned) [PRX-P4-002, N-(Decanoyloxymethoxycarbonyl)-(−)-N-ethyl-3-phenylbicyclo[2.2.1]heptan-2-amine], the Tmax [1, 3] was 0 min and the Tmax [2] was 0 h.
`CCCCCCCCCC(=O)OC(C)OC(=O)N(CC)C1C2CCC(C2)C1c1ccccc1` (single isomer, unassigned) [PRX-P5-002, N-(1-Decanoyloxyethoxycarbonyl)-(−)-N-ethyl-3-phenylbicyclo[2.2.1]heptan-2-amine] gave a Tmax [1, 3] of 0 min and a Tmax [2] of 0 h.
With `CCN(C(=O)[C@@H](NC(=O)[C@@H](N)C(C)C)C(C)C)C1C2CCC(C2)C1c1ccccc1` (single isomer, unassigned) [PRX-P6-011, N-(Valyl-valyl)-(+)-N-ethyl-3-phenylbicyclo[2.2.1]heptan-2-amine] the “AUC% extrap of PRX-P6-011” value ([1]; PRX-P6-011 oral 5 mg/kg) was 23.190 ± 3.6640%, the Cmax [1, 4] was 0.0822 ± 0.0309 µg/mL and the concentration at 0 h ([1]; male, Sprague Dawley, rat, in vivo, PRX-P6-011 oral 5 mg/kg b.w., 0.00 h, read-out: Plasma concentrations of PRX-P6-011) was 0 µg/mL. It also gave a concentration at 0.08 h ([1]; male, Sprague Dawley, rat, in vivo, PRX-P6-011 oral 5 mg/kg b.w., 0.08 h, read-out: Plasma concentrations of PRX-P6-011) of 0.0759 µg/mL, a concentration at 4 h ([1]; male, Sprague Dawley, rat, in vivo, PRX-P6-011 oral 5 mg/kg b.w., 4.00 h, read-out: Plasma concentrations of PRX-P6-011) of 0 µg/mL and a concentration at 6 h ([1]; male, Sprague Dawley, rat, in vivo, PRX-P6-011 oral 5 mg/kg b.w., 6.00 h, read-out: Plasma concentrations of PRX-P6-011) of 0 µg/mL. It also gave a concentration at 24 h ([1]; male, Sprague Dawley, rat, in vivo, PRX-P6-011 oral 5 mg/kg b.w., 24.00 h, read-out: Plasma concentrations of PRX-P6-011) of 0 µg/mL, an AUC [1, 5] of 0.0442 ± 0.0171 µg·h/mL and a Tmax [1, 3] of 8.4 ± 6 min. It also gave an AUC(0-inf) ([1]; male, Sprague-Dawley, rat, in vivo, po, 5 mg/kg, PRX-P6-011 oral 5 mg/kg, read-out: AUCinf of PRX-P6-011) of 0.0573 ± 0.0213 µg·h/mL, an AUC(0-t) ([1]; male, Sprague-Dawley, rat, in vivo, po, 5 mg/kg, PRX-P6-011 oral 5 mg/kg, read-out: AUClast of PRX-P6-011) of 0.0442 ± 0.0171 µg·h/mL and a Cmax ([1]; male, Sprague-Dawley, rat, in vivo, po, 5 mg/kg, PRX-P6-011 oral 5 mg/kg, read-out: Cmax of PRX-P6-011) of 0.0822 ± 0.0309 µg/mL. For the same compound, the MRT last ([1]; male, Sprague-Dawley, rat, in vivo, po, 5 mg/kg, PRX-P6-011 oral 5 mg/kg, read-out: MRTlast of PRX-P6-011) was 34.5 ± 2.22 min, the half-life ([1]; male, Sprague-Dawley, rat, in vivo, po, 5 mg/kg, PRX-P6-011 oral 5 mg/kg, read-out: T1/2 of PRX-P6-011 (converted)) was 70.3 ± 12.7 min and the concentration at 0.25 h ([1]; male, Sprague-Dawley, rat, in vivo, PRX-P6-011 oral 5 mg/kg b.w., 0.25 h, read-out: Plasma concentrations of PRX-P6-011) was 0.0628 µg/mL. For the same compound, the concentration at 0.5 h ([1]; male, Sprague-Dawley, rat, in vivo, PRX-P6-011 oral 5 mg/kg b.w., 0.50 h, read-out: Plasma concentrations of PRX-P6-011) was 0.0208 µg/mL, the concentration at 1 h ([1]; male, Sprague-Dawley, rat, in vivo, PRX-P6-011 oral 5 mg/kg b.w., 1.00 h, read-out: Plasma concentrations of PRX-P6-011) was 0.013 µg/mL and the concentration at 2 h ([1]; male, Sprague-Dawley, rat, in vivo, PRX-P6-011 oral 5 mg/kg b.w., 2.00 h, read-out: Plasma concentrations of PRX-P6-011) was 0.00787 µg/mL. For the same compound, the Tmax ([1]; male, Sprague-Dawley, rat, in vivo, PRX-P6-011 oral 5 mg/kg, read-out: Tmax of PRX-P6-011) was 8.22 ± 5.88 min.
With `CCN(C(=O)[C@@H](N)CCCCN)C1C2CCC(C2)C1c1ccccc1` (stereo partly drawn) [PRX-P1-005, N-Lysyl-(−)-N-ethyl-3-phenylbicyclo[2.2.1]heptan-2-amine] the Cmax [1, 4] was 0.032 ± 0.0075 µg/mL, the AUC [1, 5] was 0.042 ± 0.0094 µg·h/mL and the Tmax [1, 3] was 30 min.
In the case of `CCN(C(=O)[C@@H](N)Cc1ccccc1)C1C2CCC(C2)C1c1ccccc1` (stereo partly drawn) [PRX-P1-013, N-Phenylalanyl-(−)-N-ethyl-3-phenylbicyclo[2.2.1]heptan-2-amine], the Cmax [1, 4] is reported as 0.307 ± 0.0496 µg/mL, the AUC [1, 5] is reported as 0.678 ± 0.101 µg·h/mL and the Tmax [1, 3] is reported as 42 ± 18 min.
